Data from US20240360177A1, “PEPTIDES WITH ANTIMICROBIAL ACTIVITIES” (priority 2021, published 2024).
Values after ≈ are worked out from the molar mass of the structure shown. Where two headings read alike, the source gives them in different places. Starred links: 1 amine or outer side, 2 acyl side, 3 side chain; linkers in the order of their positions; H or OH if unused. Non-standard residues stand in square brackets, D forms with d. Residues, ends and D or L forms follow the SMILES beside them. NH(CH2)9CO = O=C(CCCCCCCCCN[*:1])[*:2]; Aoc = NCCCCCCCC(=O)O

What was measured:
[1] = test system: Staphylococcus aureus ATCC 29213; type: cell-based
[2] = test system: Escherichia coli ATCC 25922; type: cell-based
[3] = test system: Klebsiella pneumoniae ATCC 13883; type: cell-based
[4] = test system: Pseudomonas aeruginosa ATCC 27853; type: cell-based
[5] = test system: Salmonella senftenberg CDC 127; type: cell-based
[6] = test system: Shigella sonnei MMX 10772; assay: Antibacterial broth microdilution MIC, Shigella sonnei; type: cell-based; conditions: CAMHB
[7] = test system: Mycobacterium fortuitum ATCC 110; assay: Antibacterial broth microdilution MIC, Mycobacterium fortuitum; type: cell-based; conditions: 48 hrs
[8] = test system: Mycobacterium smegmatis ATCC 700084; type: cell-based; conditions: ATCC 700084, 48 h
C. albicans = conditions: 24 h
C. glabrata = conditions: 24 h
C. parapsilosis = conditions: 24 h
C. krusei = conditions: 24 h
C. auris = conditions: 24 h
C. tropicalis = conditions: 24 h
C. dubliniensis = conditions: 24 h
C. neoformans = conditions: 72 h
C. gattii = conditions: 72 h
Fusarium spp. = conditions: 48 h
[9] = test system: Trichophyton rubrum ATCC MYA-4438
[10] = test system: Epidermophyton floccosum ATCC 52066
[11] = test system: Microsporum gypseum ATCC 14683
in vitro [12] = conditions: human
[13] = Acute toxicity in CD-1 mice; conditions: both sexes, mouse, in vivo
Protocol: Acute toxicity and subacute toxicity of ACPs were tested in CD-1 mice. In the acute toxicity study, groups of CD-1 male or female mice were administered single intravenous or intraperitoneal escalating doses (n=2-3 per dose) of the peptides dissolved in normal saline for injection or in phosphate buffered saline. The intravenous dose was administered via tail vein with a slow push over 15-20 seconds. Doses were escalated based on tolerability.

[14] = Subacute toxicity in CD-1 mice; type: in vivo; conditions: daily IP for 7 days
Protocol: In the subacute toxicity study, groups of CD-1 male or female mice were administered seven consecutive daily intraperitoneal doses (n=3 per dose) of the peptides (SEQ ID NO: 7, SEQ ID NO: 29, SEQ ID NO: 53) dissolved in normal saline for injection. Each peptide was evaluated at 2 to 3 dose levels ranging from 2.5 to 7.5 mg/kg/day. Mice were weighed at least once daily and observed at least twice daily for any abnormal findings and determination of overall health. At 24 hrs after the last dose, mice were humanely euthanized, with blood collected through cardiac puncture into K2EDTA microtainers to assess hematological parameters. All three peptides were tolerated at the highest dose evaluated (7.5 mg/kg/day) for 7 days.

Coccidioides species = conditions: N = 10 strains; 48-72 hrs; >50% inhibition
Scedosporium spp. = conditions: 72 h
[15] = mice
in vitro [16] = conditions: human, human serum, full strength
[17] = EC50 cytotoxicity in HepG2, intracellular ATP assay

N=C(N)NCCC[C@@H](N)C(=O)N[C@@H](CCCNC(=N)N)C(=O)N[C@H](CCCNC(=N)N)C(=O)NCC(=O)N[C@H](CCCNC(=N)N)C(=O)N[C@@H](CCCNC(=N)N)C(=O)N[C@H](CCCNC(=N)N)C(=O)NCC(=O)N[C@H](CCCNC(=N)N)C(=O)N[C@@H](CCCNC(=N)N)C(=O)N[C@H](CCCNC(=N)N)C(=O)N[C@@H](CCCNC(=N)N)C(=O)NCC(=O)N[C@H](CCCNC(=N)N)C(=O)N[C@@H](CCCNC(=N)N)C(=O)N[C@H](CCCNC(=N)N)C(=O)N[C@@H](CCCNC(=N)N)C(=O)N[C@@H](CS)C(=O)O [SEQ ID NO: 2, rRr-G-rRr-G-rRrR-G-rRrR-Cys] (H-[dR]R[dR]G[dR]R[dR]G[dR]R[dR]RG[dR]R[dR]RC-OH)
MIC Staphylococcus aureus [1]: 8 µg/mL (≈ 3.23 µM) | MIC Escherichia coli [2]: 8 µg/mL (≈ 3.23 µM) | MIC Klebsiella pneumoniae [3]: 64 µg/mL (≈ 25.8 µM) | MIC Pseudomonas aeruginosa [4]: 32 µg/mL (≈ 12.9 µM) | MIC Salmonella senftenberg [5]: 32 µg/mL (≈ 12.9 µM) | MIC Shigella sonnei [6]: 16 µg/mL (≈ 6.45 µM) | MIC Mycobacterium fortuitum [7]: 4 µg/mL (≈ 1.61 µM) | MIC Mycobacterium smegmatis [8]: 1 µg/mL (≈ 0.403 µM) | MIC C. albicans (C. albicans): 0.5 µg/mL (≈ 0.202 µM) | MIC C. glabrata (C. glabrata): 0.5 µg/mL (≈ 0.202 µM) | MIC C. parapsilosis (C. parapsilosis): 0.25 µg/mL (≈ 0.101 µM) | MIC C. krusei (C. krusei): 0.5 µg/mL (≈ 0.202 µM) | MIC C. auris (C. auris): 2 µg/mL (≈ 0.807 µM) | MIC C. tropicalis (C. tropicalis): 0.25 µg/mL (≈ 0.101 µM) | MIC C. dubliniensis (C. dubliniensis): 0.5 µg/mL (≈ 0.202 µM) | MIC C. neoformans (C. neoformans): 0.5 µg/mL (≈ 0.202 µM) | MIC C. gattii (C. gattii): 0.5 µg/mL (≈ 0.202 µM) | MIC Range Fusarium spp. (Fusarium spp.): 0.12 to 0.25 µg/mL | MIC Trichophyton rubrum [9]: 2 µg/mL (≈ 0.807 µM) | MIC Epidermophyton floccosum [10]: 4 µg/mL (≈ 1.61 µM) | MIC Microsporum gypseum [11]: >64 µg/mL | MIC50 against Candida spp. (Candida spp.): 0.5 µg/mL (≈ 0.202 µM) | MIC90 against Candida spp. (Candida spp.): 2 µg/mL (≈ 0.807 µM) | EC50 (in vitro [12]; [17]): 40 µg/mL (≈ 16.1 µM) | EC50 (in vitro [12]; EC50 cytotoxicity in HepG2 cells (50% cell viability)): 39.6 µg/mL (≈ 16 µM)

N=C(N)NCCC[C@@H](N)C(=O)N[C@@H](CCCNC(=N)N)C(=O)N[C@H](CCCNC(=N)N)C(=O)NCCCCCCCCCC(=O)N[C@H](CCCNC(=N)N)C(=O)N[C@@H](CCCNC(=N)N)C(=O)N[C@H](CCCNC(=N)N)C(=O)NCCCCCCCC(=O)N[C@H](CCCNC(=N)N)C(=O)N[C@@H](CCCNC(=N)N)C(=O)N[C@H](CCCNC(=N)N)C(=O)N[C@@H](CCCNC(=N)N)C(=O)NCCCCCCCC(=O)N[C@H](CCCNC(=N)N)C(=O)N[C@@H](CCCNC(=N)N)C(=O)N[C@H](CCCNC(=N)N)C(=O)N[C@@H](CCCNC(=N)N)C(=O)NCCCCCCCC(=O)O [SEQ ID NO: 34, rRr-(Ada)-rRr-(Aoa)-rRrR-(Aoa)-rRrR-Aoa] (H-[dR]R[dR][NH(CH2)9CO][dR]R[dR][Aoc][dR]R[dR]R[Aoc][dR]R[dR]R[Aoc]-OH)
MIC Staphylococcus aureus [1]: 16 µg/mL (≈ 5.72 µM) | MIC Escherichia coli [2]: 4 µg/mL (≈ 1.43 µM) | MIC Klebsiella pneumoniae [3]: 8 µg/mL (≈ 2.86 µM) | MIC Pseudomonas aeruginosa [4]: 16 µg/mL (≈ 5.72 µM) | MIC Salmonella senftenberg [5]: 8 µg/mL (≈ 2.86 µM) | MIC Shigella sonnei [6]: 4 µg/mL (≈ 1.43 µM) | MIC Mycobacterium fortuitum [7]: 2 µg/mL (≈ 0.715 µM) | MIC Mycobacterium smegmatis [8]: 1 µg/mL (≈ 0.357 µM) | MIC C. albicans (C. albicans): 2 µg/mL (≈ 0.715 µM) | MIC C. glabrata (C. glabrata): 8 µg/mL (≈ 2.86 µM) | MIC C. parapsilosis (C. parapsilosis): 0.5 µg/mL (≈ 0.179 µM) | MIC C. krusei (C. krusei): 1 µg/mL (≈ 0.357 µM) | MIC C. auris (C. auris): 0.5 µg/mL (≈ 0.179 µM) | MIC C. tropicalis (C. tropicalis): 0.5 µg/mL (≈ 0.179 µM) | MIC C. dubliniensis (C. dubliniensis): 0.5 µg/mL (≈ 0.179 µM) | MIC C. neoformans (C. neoformans): 0.5 µg/mL (≈ 0.179 µM) | MIC C. gattii (C. gattii): 0.5 µg/mL (≈ 0.179 µM) | MIC Range Fusarium spp. (Fusarium spp.): 0.25 to 2 µg/mL | MIC Trichophyton rubrum [9]: 4 µg/mL (≈ 1.43 µM) | MIC Epidermophyton floccosum [10]: 8 µg/mL (≈ 2.86 µM) | MIC Microsporum gypseum [11]: 32 µg/mL (≈ 11.4 µM) | EC50 (in vitro [12]; [17]): 162 µg/mL (≈ 57.9 µM)

N=C(N)NCCC[C@@H](N)C(=O)N[C@@H](CCCNC(=N)N)C(=O)N[C@H](CCCNC(=N)N)C(=O)N1CCC[C@H]1C(=O)N[C@H](CCCNC(=N)N)C(=O)N[C@@H](CCCNC(=N)N)C(=O)N[C@H](CCCNC(=N)N)C(=O)N1CCC[C@H]1C(=O)N[C@H](CCCNC(=N)N)C(=O)N[C@@H](CCCNC(=N)N)C(=O)N[C@H](CCCNC(=N)N)C(=O)N[C@@H](CCCNC(=N)N)C(=O)N1CCC[C@H]1C(=O)N[C@H](CCCNC(=N)N)C(=O)N[C@@H](CCCNC(=N)N)C(=O)N[C@H](CCCNC(=N)N)C(=O)N[C@@H](CCCNC(=N)N)C(N)=O [SEQ ID NO: 53, rRr-P-rRr-P-rRrR-P-rRrR-NH2] (H-[dR]R[dR]P[dR]R[dR]P[dR]R[dR]RP[dR]R[dR]R-NH2)
MTD ([13]; single IP dose, read-out: Tolerated single intraperitoneal dose): 10 to 15 mg/kg | MTD ([13]; single IV dose via tail vein, read-out: Tolerated single intravenous dose): 5 to 7.5 mg/kg | Tolerated dose (highest dose evaluated) [14]: 7.5 mg/kg/day | Clinical or hematological adverse effects ([14]; up to 7.5 mg/kg/day): No significant clinical or hematological adverse effects were observed | MIC C. albicans (C. albicans): 0.5 µg/mL (≈ 0.2 µM) | MIC C. glabrata (C. glabrata): 0.5 µg/mL (≈ 0.2 µM) | MIC C. parapsilosis (C. parapsilosis): 0.25 µg/mL (≈ 0.1 µM) | MIC C. krusei (C. krusei): 0.5 µg/mL (≈ 0.2 µM) | MIC C. auris (C. auris): 0.25 µg/mL (≈ 0.1 µM) | MIC C. tropicalis (C. tropicalis): 0.5 µg/mL (≈ 0.2 µM) | MIC C. dubliniensis (C. dubliniensis): 0.25 µg/mL (≈ 0.1 µM) | MIC C. neoformans (C. neoformans): 0.5 µg/mL (≈ 0.2 µM) | MIC C. gattii (C. gattii): 0.25 µg/mL (≈ 0.1 µM) | MIC Range Coccidioides species (Coccidioides species): 0.06 to 0.25 µg/mL | MIC Range Fusarium spp. (Fusarium spp.): 0.25 µg/mL (≈ 0.1 µM) | MIC Range Scedosporium spp. (Scedosporium spp.): 0.25 µg/mL (≈ 0.1 µM) | MIC Range Lomentospora prolificans (Lomentospora prolificans): 0.12 µg/mL (≈ 0.0481 µM) | Activity at 24 h MIC50 against Candida spp. (Candida spp.; 24 h): 0.5 µg/mL | Activity at 24 h MIC90 against Candida spp. (Candida spp.; 24 h): 0.5 µg/mL | Activity at 48 h MIC50 against Candida spp. (Candida spp.; 48 h): 0.5 µg/mL | Activity at 48 h MIC90 against Candida spp. (Candida spp.; 48 h): 2 µg/mL | MIC Range Cryptococcus spp. (Cryptococcus spp.): 0.25 to 0.5 µg/mL | MIC Range Filamentous Fungi (Filamentous Fungi): 0.12 to 0.25 µg/mL | Kidney to Plasma Concentration Ratio Day 7 ([15]; 6 hrs post dose of 7.5 mg/kg IP once daily, Day 7, mean ± SD, n = 3): 916 ± 36 | Kidney to Plasma Concentration Ratio Day 1 ([15]; 6 hrs post dose of 7.5 mg/kg IP, Day 1, mean ± SD, n = 3): 179 ± 106 | Day 1 AUC ratio, kidney to plasma ([15]; IP 7.5 mg/kg, Day 1): 58.3 | EC50 (in vitro [12]; [17]): > 300 µg/mL | remaining at 2 h, 5 μM (in vitro [16]): ~100%
